In patent publication US8586611B2 (priority 2005, dated 2013):

How the values were obtained:
Type in all cases: in vivo
Plasmopara viticola = test: Test B: grape downy mildew, spray 24 h after inoculation (disease rating, 100 = 100% disease control)
How it was run: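 This is a curative spray test, applied 24 h after inoculation. Compounds in 50/50 acetone–water with 250 ppm Trem 014 surfactant were sprayed to run-off on P. viticola-infected seedlings, with 200 ppm equating to 500 g/ha. Plants were kept 5 days in a 20 °C growth chamber, then 24 h humid, and scored 0–100 for disease control relative to controls.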

Phytophthora infestans [1] = test: whole plant or invertebrate; conditions: tomato late blight
Phytophthora infestans [2] = test: whole plant or invertebrate; conditions: tomato late blight; remark: listed apart in the source
[3] = system: Erysiphe graminis f. sp. tritici; test: Test E: wheat powdery mildew, spray the day before inoculation (disease rating, 100 = 100% disease control)
How it was run: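 Protective test: spores of E. graminis f. sp. tritici dusted on wheat seedlings one day after run-off spraying of test suspension (acetone/water with 250 ppm surfactant; 200 ppm = 500 g/ha). Ratings after 7 days in growth chamber at 20° C, 100 = full control, 0 = none, relative to controls.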

[4] = system: Pseudoperonospora cubensis; test: Test F: cucumber downy mildew, DMSO/acetone/water test suspension, spray the day before inoculation (disease rating, 100 = 100% disease control)
From the text: The test compounds were first dissolved in dimethyl sulfoxide (DMSO) in an amount equal to 4% of the final volume and then suspended at the desired concentration (in ppm) in acetone and purified water (30/70 mix by volume). The resulting test suspensions were then used in test F. Spraying a 250 ppm test suspension on the test plants was the equivalent of a rate of 250 g/ha.
The test suspension was sprayed on cucumber seedlings. The following day the seedlings were inoculated with a spore suspension of Pseudoperonospora cubensis (the causal agent of cucumber downy mildew) and incubated in a saturated atmosphere at 20° C. for 24 h, and then moved to a growth chamber at 20° C. for 6 days, after which disease ratings were made.
Results for Tests A-F are given in Table A. In the table, a rating of 100 indicates 100% disease control and a rating of 0 indicates no disease control (relative to the controls). A dash (-) indicates no test results.

[5] = spray 24 h after inoculation, compounds without asterisk (not 40 or 10 ppm)
[6] = spray the day before inoculation, compounds without asterisk (not 40 or 10 ppm)
[7] = spray 17 h after inoculation, compounds without asterisk (not 40 or 10 ppm)
[8] = DMSO/acetone/water suspension, spray the day before inoculation, compounds without asterisk
[9] = sprayed 24 h after inoculation, unmarked compounds (no asterisk, not 40 or 10 ppm)
[10] = sprayed the day before inoculation, unmarked compounds (no asterisk, not 40 or 10 ppm)
[11] = sprayed 17 h after inoculation, unmarked compounds (no asterisk, not 40 or 10 ppm)
[12] = sprayed the day before inoculation, 7 days at 20° C., unmarked compounds (no asterisk, not 40 or 10 ppm)
[13] = DMSO/acetone/water test suspension, sprayed the day before inoculation, unmarked compounds (no asterisk)

SMILES	Test B disease rating (100 = 100% disease control, 0 = no disease control) (Plasmopara viticola; [5]) [%]	Test C disease rating (100 = 100% disease control, 0 = no disease control) (Phytophthora infestans [1]; [6]) [%]	Test D disease rating (100 = 100% disease control, 0 = no disease control) (Phytophthora infestans [2]; [7]) [%]	Test E disease rating (100 = 100% disease control, 0 = no disease control) [3, 6] [%]	Test F disease rating (100 = 100% disease control, 0 = no disease control) [4, 8] [%]	Test B disease rating (100 = 100% disease control, 0 = no disease control) (Plasmopara viticola; [9])	Test C disease rating (100 = 100% disease control, 0 = no disease control) (Phytophthora infestans [1]; [10])	Test D disease rating (100 = 100% disease control, 0 = no disease control) (Phytophthora infestans [2]; [11])	Test E disease rating (100 = 100% disease control, 0 = no disease control) [3, 12]	Test F disease rating (100 = 100% disease control, 0 = no disease control) [4, 13]
Cc1ccc(C)c(CC(=O)N2CCC(c3nc(C(=O)N(C)C4CCCCC4)cs3)CC2)c1 [compound 174]	68	100	63	0	90	–	–	–	–	–
Cc1ccc(C)c(CC(=O)N2CCC(c3nc(C(=O)N(C)C(C)(C)Cc4ccc(F)cc4)cs3)CC2)c1 [compound 175]	93	95	0	0	43	–	–	–	–	–
Cc1ccc(C)c(CC(=O)N2CCC(c3nc(C(=O)N(C)C4CCCC(C)C4)cs3)CC2)c1 (centres unmarked) [compound 176]	15	95	24	0	49	–	–	–	–	–
Cc1ccc(C)c(CC(=O)N2CCC(c3nc(C(=O)N(C)C4CCCC(C)C4C)cs3)CC2)c1 (centres unmarked) [compound 177]	86	100	79	0	43	–	–	–	–	–
Cc1cc(C(F)(F)F)nn1CC(=O)N1CCC(c2nc(C(=O)N(C)C3CCCc4ccccc43)cs2)CC1 (centres unmarked) [compound 187]	98	100	99	0	93	–	–	–	–	–
Cc1cc(C(F)(F)F)nn1CC(=O)N1CCC(c2nc(C(=O)N(C)C3CCCc4cc(O)ccc43)cs2)CC1 (centres unmarked) [compound 190]	8	100	99	0	93	–	–	–	–	–
C[C@@H](NC(=O)c1csc(C2CCN(C(=O)Cc3cccc(Br)c3)CC2)n1)c1ccccc1C(F)(F)F [compound 275]	–	–	–	–	–	30	9	0	0	0
CC[C@@H](NC(=O)c1csc(C2CCN(C(=O)Cc3cccc(Br)c3)CC2)n1)c1ccccc1 [compound 278]	–	–	–	–	–	0	33	0	0	93
COc1ccc([C@@H](C)NC(=O)c2csc(C3CCN(C(=O)Cc4cccc(Br)c4)CC3)n2)cc1 [compound 279]	–	–	–	–	–	0	0	0	0	0
Cc1ccc(C)c(CC(=O)N2CCC(c3nc(C(=O)N[C@H](C)c4ccccc4)cs3)CC2)c1 [compound 283]	–	–	–	–	–	48	84	0	0	99
